Results published in patent US11912695B2, “Benzodiazepine derivatives as RSV inhibitors” (ENANTA PHARMACEUTICALS, INC., priority 2019, dated 2024).

Key:
[1] = test system: Human RSV-A (“Long” strain); experiment: RSV-A assay (CPE, ATPlite) in Hep-2 cells; format: cell-based; settings: human respiratory syncytial virus, 120 h, MOI 0.1, 5-day incubation, ATPlite readout
From the text: Hep-2 cells, (originally derived from tumors grown in irradiated-cortisonised weanling rats that had been injected with epidermoid carcinoma tissue from a person's larynx, but later found to be indistinguishable from HeLa cells by PCR DNA analysis), were used for the culturing of genotype A, “Long” strain RSV. Flasks were inoculated with RSV and viral stocks were collected once cytopathic effect (CPE) was greater than 90%. Viral stocks in 25% sucrose media were snap frozen using liquid nitrogen to increase viral stability. Viral stock titers were quantified by tissue culture infectious dose 50% (TCID50) using 8,000 cells per well and 3-fold viral dilutions across a 96-well plate, cultured for 4 days. Viral stock titers were also quantified by a plaque forming unit assay, as described elsewhere.
Following extensive parameter testing, the final assay is run as follows: Hep-2 cells are seeded into the inner 60 wells of a 96-well plate at 8,000 cells per well in a volume of 50 μL using Growth Media (DMEM without phenol red, 1% L-Glut, 1% Penn/Strep, 1% nonessential amino acids, 10% heat-inactivated FBS). 2-fold serial dilutions of control and test compounds are added to the wells in duplicate in a total volume of 25 μL. Viral stock is then added to the wells at a multiplicity of infection (MOI) of 0.1 in a volume of 25 μL, bringing the total volume of each well to 100 μL. The MOI is calculated using the PFU/mL, or TCID50 if unavailable. Each 96-well plate has a control column of 6 wells with cells and virus but no compound (negative control, max CPE), a column with cells but no compound or virus (positive control, minimum CPE), and a column with no cells or virus or compound (background plate/reagent control). The control wells with cells but no virus are given an additional 25 μL of growth media containing an equal quantity of sucrose as those wells receiving the viral stock in order to keep consistent in media and volume conditions. The outer wells of the plate are filled with 125 μL of moat media (DMEM, 1% Penn/Strep) to act as a thermal and evaporative moat around the test wells. Following a 5-day incubation period, the plates are read using ATPlite (50 μL added per well), which quantifies the amount of ATP (a measure of cell health) present in each well. Assay plates are read using the Envision luminometer. In parallel, cytotoxicity is examined on an additional 96-well plate treated in an identical manner, but substituting the 25 μL of viral stock for 25 μL of growth media. […] EC50 ranges are as follows: A<0.4 μM; B 0.4-0.8 μM; C>0.8 μM.

[2] = test system: Human RSV-B (genotype B, strain 9320); experiment: RSV-B assay (qPCR or ATPlite) in A549 cells; format: cell-based; settings: human respiratory syncytial virus, 144 h, strain 9320, MOI 0.5, 6 days post infection, qPCR or ATPlite readout
From the text: Hep-2 cells, (originally derived from tumors grown in irradiated-cortisonised weanling rats that had been injected with epidermoid carcinoma tissue from a person's larynx, but later found to be indistinguishable from HeLa cells by PCR DNA analysis), were used for the culturing of genotype B, strain 9320. Flasks were inoculated with RSV-B and viral stocks were collected once cytopathic effect (CPE) was greater than 90%. Viral stocks in 25% sucrose media were snap frozen using liquid nitrogen to increase viral stability. Viral stock titers were quantified by tissue culture infectious dose 50% (TCID50) using 8,000 cells per well and 5-fold viral dilutions across a 96-well plate, cultured for 4 days. Viral stock titers were also quantified by a plaque forming unit assay, as described elsewhere.
The assay is run as follows: A549 cells (originally derived through explant culture from a person's carcinomatous lung tissue) are seeded into the inner 60 wells of a 96-well plate at 3,000 cells per well in a volume of 50 μL using A549 growth media (F-12K Media, 1% Penn/Strep, 1% nonessential amino acids, 10% heat-inactivated FBS). 2-fold serial dilutions of control and test compounds are added to the wells in duplicate in a total volume of 25 μL. Viral stock is then added to the wells at a multiplicity of infection (MOI) of 0.5 in a volume of 25 μL, bringing the total volume of each well to 100 μL. The MOI is calculated using the PFU/mL, or TCID50 if unavailable. Each 96-well plate has a control column of 6 wells with cells and virus but no compound (negative control, max CPE), a column with cells but no compound or virus (positive control, minimum CPE), and a column with no cells or virus or compound (background plate/reagent control). The control wells with cells but no virus are given an additional 25 μL of growth media containing an equal quantity of sucrose as those wells receiving the viral stock in order to keep consistent in media and volume conditions. The outer wells of the plate are filled with 125 μL of moat media (DMEM, 1% Penn/Strep) to act as a thermal and evaporative moat around the test wells. 6 days post infection, the plates are read using qPCR or ATP lite (50 μL added per well), which quantifies the amount of ATP (a measure of cell health) present in each well. Assay plates treated with APTlite are read using the Envision luminometer. […] EC50 ranges are as follows: A<0.4 μM; B 0.4-0.8 μM; C>0.8 μM.

SMILES | EC50 [1] [nM] | EC50 [2] [nM]
O=C1Nc2ccccc2C(c2ccccc2)=NC1Nc1nnc(-c2ncc(C(F)(F)F)cc2-c2cnc(NC3CC3)nc2)o1 (stereo not drawn) [Example 20] | 400 to 800 | < 400
CCc1ncc(-c2cc(C(F)(F)F)cnc2-c2nnc(N[C@H]3N=C(c4ccccc4)c4ccccc4NC3=O)o2)cn1 [Example 29] | < 400 | < 400
Cc1ncc(-c2sc(C3(C(F)(F)F)CC3)nc2-c2nnc(N[C@@H]3N=C(c4ccccc4)c4cccc(F)c4NC3=O)o2)cn1 [Example 72] | > 800 | < 400
CCc1ncc(-c2sc(C3CCC3)nc2-c2nnc(N[C@H]3N=C(c4ccccc4)c4cccc(F)c4NC3=O)o2)cn1 [Example 58] | < 400 | < 400
CCc1ncc(-c2sc(C3(C(F)(F)F)CC3)nc2-c2nnc(N[C@@H]3N=C(c4ccccc4)c4ccccc4NC3=O)o2)cn1 [Example 70] | > 800 | > 800
O=C1Nc2c(F)cccc2C(c2ccccc2)=N[C@H]1Nc1nnc(-c2nc(C3(C(F)(F)F)CC3)sc2-c2cnc(C3CC3)nc2)o1 [Example 74] | > 800 | < 400
CCc1nc(-c2nnc(N[C@@H]3N=C(c4ccccc4)c4cccc(F)c4NC3=O)o2)c(-c2cnc(C3CC3)nc2)s1 [Example 53] | 400 to 800 | < 400
O=C1Nc2ccccc2C(c2ccccc2)=NC1Nc1nnc(-c2ncc(C(F)(F)F)cc2-c2cnc(C(F)(F)F)nc2)o1 (stereo not drawn) [Example 10] | > 800 | > 800
CCc1ncc(-c2sc(C)nc2-c2nnc(N[C@@H]3N=C(c4ccccc4)c4cccc(F)c4NC3=O)o2)cn1 [Example 37] | < 400 | < 400
CCc1ncc(-c2sc(C3CCC3)nc2-c2nnc(N[C@@H]3N=C(c4ccccc4)c4cccc(F)c4NC3=O)o2)cn1 [Example 59] | < 400 | < 400
O=C1Nc2ccccc2C(c2ccccc2)=NC1Nc1nnc(-c2cccnc2-c2cnc(C3CC3)nc2)o1 (stereo not drawn) [Example 23] | > 800 | < 400
O=C1Nc2ccccc2C(c2ccccc2)=NC1Nc1nnc(-c2ncccc2-c2cnc(C3CC3)nc2)o1 (stereo not drawn) [Example 16] | 400 to 800 | < 400
O=C1Nc2ccccc2C(c2ccccc2)=NC1Nc1nnc(-c2ncc(C(F)(F)F)cc2-c2cnc(Cl)nc2)o1 (stereo not drawn) [Example 14, 3-((5-(3-(2-chloropyrimidin-5-yl)-5-(trifluoromethyl)pyridin-2-yl)-1,3,4-oxadiazol-2-yl)amino)-5-phenyl-1,3-dihydro-2H-benzo[e][1,4]diazepin-2-one] | > 800 | > 800
CCc1ncc(-c2sc(C3(C(F)(F)F)CC3)nc2-c2nnc(N[C@H]3N=C(c4ccccc4)c4ccccc4NC3=O)o2)cn1 [Example 71] | < 400 | < 400
CCc1ncc(-c2sc(C(F)(F)F)nc2-c2nnc(N[C@@H]3N=C(c4ccccc4)c4cccc(F)c4NC3=O)o2)cn1 [Example 42] | < 400 | < 400
CCc1ncc(-c2sc(C(F)(F)F)nc2-c2nnc(N[C@H]3N=C(c4ccccc4)c4cccc(F)c4NC3=O)o2)cn1 [Example 32] | < 400 | < 400
CCc1nc(-c2nnc(N[C@@H]3N=C(c4ccccc4)c4cccc(F)c4NC3=O)o2)c(-c2cnc(C)nc2)s1 [Example 51] | 400 to 800 | < 400
O=C1Nc2ccccc2C(c2ccccc2)=N[C@@H]1Nc1nnc(-c2ccc(C(F)(F)F)nc2-c2cnc(C3CC3)nc2)o1 [Example 22] | 400 to 800 | < 400
Cc1nc(-c2nnc(N[C@@H]3N=C(c4ccccc4)c4cccc(F)c4NC3=O)o2)c(-c2cnc(C3CC3)nc2)s1 [Example 40] | < 400 | < 400

SMILES | EC50 [1] [nM] | EC50 [2] [nM]
Cc1ncc(-c2sc(C)nc2-c2nnc(N[C@H]3N=C(c4ccccc4)c4cccc(F)c4NC3=O)o2)cn1 [Example 39] | < 400 | < 400
Cc1ncc(-c2cc(C(F)(F)F)cnc2-c2nnc(N[C@H]3N=C(c4ccccc4)c4ccccc4NC3=O)o2)cn1 [Example 26] | < 400 | < 400
CCc1ncc(-c2cc(C(F)(F)F)cnc2-c2nnc(NC3N=C(c4ccccc4)c4ccccc4NC3=O)o2)cn1 (stereo not drawn) [Example 8] | < 400 | < 400
O=C1Nc2c(F)cccc2C(c2ccccc2)=N[C@@H]1Nc1nnc(-c2nc(C3CC3)sc2-c2cnc(C3CC3)nc2)o1 [Example 48] | < 400 | < 400
CCc1ncc(-c2cccnc2-c2nnc(NC3N=C(c4ccccc4)c4ccccc4NC3=O)o2)cn1 (stereo not drawn) [Example 15] | > 800 | < 400
O=C1Nc2ccccc2C(c2ccccc2)=N[C@@H]1Nc1nnc(-c2ncc(C(F)F)cc2-c2cnc(C3CC3)nc2)o1 [Example 98] | < 400 | < 400
C=Cc1ncc(-c2cc(C(F)(F)F)cnc2-c2nnc(NC3N=C(c4ccccc4)c4ccccc4NC3=O)o2)cn1 (stereo not drawn) [Example 18] | 400 to 800 | < 400
O=C1Nc2ccccc2C(c2ccccc2)=N[C@@H]1Nc1nnc(-c2ncc(CO)cc2-c2cnc(C3CC3)nc2)o1 [Example 97] | < 400 | < 400
Cc1ncc(-c2sc(C3(C)CC3)nc2-c2nnc(N[C@@H]3N=C(c4ccccc4)c4cccc(F)c4NC3=O)o2)cn1 [Example 66] | 400 to 800 | < 400
Cc1ncc(-c2cc(C(F)(F)F)cnc2-c2nnc(N[C@H]3N=C(c4ccccc4)c4cccc(F)c4NC3=O)o2)cn1 [Example 27] | < 400 | < 400
CCc1ncc(-c2sc(C3CC3)nc2-c2nnc(N[C@H]3N=C(c4ccccc4)c4cccc(F)c4NC3=O)o2)cn1 [Example 43] | < 400 | < 400
COc1ncc(-c2cc(C(F)(F)F)cnc2-c2nnc(NC3N=C(c4ccccc4)c4ccccc4NC3=O)o2)cn1 (stereo not drawn) [Example 3] | 400 to 800 | 400 to 800
CCc1nc(-c2nnc(N[C@H]3N=C(c4ccccc4)c4cccc(F)c4NC3=O)o2)c(-c2cnc(C3CC3)nc2)s1 [Example 54] | < 400 | < 400
O=C1Nc2ccccc2C(c2ccccc2)=NC1Nc1nnc(-c2ncc(C(F)(F)F)cc2-c2cnc(C3CCC3)nc2)o1 (stereo not drawn) [Example 13] | 400 to 800 | < 400
Cc1ncc(-c2sc(C3(C(F)(F)F)CC3)nc2-c2nnc(N[C@H]3N=C(c4ccccc4)c4cccc(F)c4NC3=O)o2)cn1 [Example 73] | < 400 | < 400
O=C1Nc2ccccc2C(c2ccccc2)=N[C@@H]1Nc1nnc(-c2ncc(C3CC3)cc2-c2cnc(C3CC3)nc2)o1 [Example 77] | < 400 | < 400
O=C1Nc2ccccc2C(c2ccccc2)=NC1Nc1nnc(-c2ncc(C(F)(F)F)cc2-c2cnc(CF)nc2)o1 (stereo not drawn) [Example 6] | < 400 | 
N#Cc1ncc(-c2cc(C(F)(F)F)cnc2-c2nnc(NC3N=C(c4ccccc4)c4ccccc4NC3=O)o2)cn1 (stereo not drawn) [Example 5] | > 800 | 
